Measured values as given in patent US20040053822A1, “Inducing cellular immune responses to mage2/3 using peptide and nucleic acid compositions” (priority 2002, published 2004).

How the values were obtained:
HLA-A*1101 = HLA-A*1101 (Homo sapiens, UniProt P04439, A114D/D185E/E176A/F33Y/L180Q/S129P/T187R); test: Purified HLA class I peptide binding assay, A*1101; conditions: binding affinity, HLA-A3 supermotif-bearing peptides
HLA-A*3101 = HLA-A*3101 (Homo sapiens, UniProt P04439, A270S/D185E/E176V/E277Q/F33T/G231S/G80R/H175R/I121M/I218V/I322F/K168Q/L300P/L318F/M331R/P217A/Q94H/R138Q/T323A/T345S/T97I/V358M); test: Purified HLA class I peptide binding assay, A*3101; conditions: binding affinity, HLA-A3 supermotif-bearing peptides
HLA-A*6801 = HLA-A*6801 (Homo sapiens, UniProt P04439, A269V/D185E/E176V/E277Q/E87N/F33Y/G231S/I121M/I166T/I218V/L180W/L300P/L318F/N151K/P208A/P217A/Q86R/R169H/T345S); test: Purified HLA class I peptide binding assay, A*6801; conditions: binding affinity, HLA-A3 supermotif-bearing peptides
HLA-A*3301 = HLA-A*3301 (Homo sapiens, UniProt P04439, A270S/D185E/E176V/E277Q/E87N/F33T/G231S/H175R/I121M/I218V/I322F/K168Q/K210R/L300P/L318F/M331R/P217A/Q86R/Q94H/R138Q/T323A/T345S/T97I/V358M/Y195H); test: Purified HLA class I peptide binding assay, A*3301; conditions: binding affinity, HLA-A3 supermotif-bearing peptides
HLA-A*0301 = HLA-A*0301 (Homo sapiens, UniProt P04439); test: Purified HLA class I peptide binding assay, A*0301; conditions: binding affinity, HLA-A3 supermotif-bearing peptides
HLA-A*0203 = HLA-A*0203 (Homo sapiens, UniProt P04439, A173T/D140Y/D185E/D98H/E277Q/G131W/G231S/I119V/I121R/I166T/I218V/L180W/L300P/L318F/N151K/N90K/P208A/P217A/Q86G/Q94H/R138H/R169H/T345S); test: Purified HLA class I peptide binding assay, A*0203; conditions: binding affinity, A2 supermotif peptides and analogs
HLA-A*6802 = HLA-A*6802 (Homo sapiens, UniProt P04439, A269V/D140Y/D185E/E176V/E277Q/E87N/F33Y/G231S/I121R/I166T/I218V/L180W/L300P/L318F/N151K/P208A/P217A/Q86R/R138H/R169H/S129P/T345S/V36M); test: Purified HLA class I peptide binding assay, A*6802; conditions: binding affinity, A2 supermotif peptides and analogs
HLA-A*0202 = HLA-A*0202 (Homo sapiens, UniProt P04439, D140Y/D185E/D98H/E176V/E277Q/G131W/G231S/I119L/I121R/I166T/I218V/L180W/L300P/L318F/N151K/N90K/P208A/P217A/Q67R/Q86G/Q94H/R138H/R169H/T345S); test: Purified HLA class I peptide binding assay, A*0202; conditions: binding affinity, A2 supermotif peptides and analogs
HLA-A*0206 = HLA-A*0206 (Homo sapiens, UniProt P04439, D140Y/D185E/D98H/E176V/E277Q/F33Y/G131W/G231S/I119V/I121R/I166T/I218V/L300P/L318F/N151K/N90K/P208A/P217A/Q86G/Q94H/R138H/R169H/T345S); test: Purified HLA class I peptide binding assay, A*0206; conditions: binding affinity, A2 supermotif peptides and analogs
HLA-DRB1*0401 (DR4w4) = HLA-DRB1*0401 (DR4w4) (Homo sapiens, UniProt P01903+P01911, A100K/A169T/F76Y/I96L/K127E/L162R/M171V/N62H/P40V/Q125Y/R42H/S133A/S149N/S66Y/V115G/V209L/W38E); test: Purified HLA class II peptide binding assay, DRB1*0401
[1] = test system: peptide-specific CTL from PBMC; test: CTL immunogenicity of A3, B7 supermotif and A1, A24 motif peptides (methodology analogous to A2); type: cell-based, human; conditions: positive/tested

| IC50 (HLA-A*0203) [nM] | IC50 (HLA-A*6802) [nM] | IC50 (HLA-A*0202) [nM] | IC50 (HLA-A*0206) [nM] | Compound | further results |
| --- | --- | --- | --- | --- | --- |
|  |  |  |  | CC[C@H](C)[C@H](NC(=O)[C@H](CC(C)C)NC(=O)[C@H](C)N)C(=O)N[C@@H](CCC(=O)O)C(=O)N[C@H](C(=O)N[C@@H](CO)C(=O)N[C@@H](Cc1ccc(O)cc1)C(=O)N[C@H](C(=O)N[C@@H](CCCCN)C(=O)O)C(C)C)[C@@H](C)O | IC50 (HLA-A*1101): 32 nM; IC50 (HLA-A*3101): 900 nM; IC50 (HLA-A*6801): 286 nM; IC50 (HLA-A*3301): > 10000 nM; IC50 (HLA-A*0301): 136 nM |
| 125 | 3080 | 729 | 1950 | CC[C@H](C)[C@H](NC(=O)[C@H](CC(C)C)NC(=O)[C@H](C)N)C(=O)N[C@@H](CCC(=O)O)C(=O)N[C@H](C(=O)N[C@@H](CO)C(=O)N[C@@H](Cc1ccc(O)cc1)C(=O)N[C@H](C(=O)N[C@@H](CCCCN)C(=O)N[C@H](C(=O)O)C(C)C)C(C)C)[C@@H](C)O |  |
| 22 | 73 | 13 | 15 | CC(C)C[C@H](NC(=O)[C@H](CCC(=O)O)NC(=O)[C@H](C)NC(=O)[C@H](CC(C)C)NC(=O)[C@@H](N)CCCCN)C(=O)N[C@H](C(=O)N[C@@H](Cc1c[nH]cn1)C(=O)N[C@@H](Cc1ccccc1)C(=O)N[C@H](C(=O)O)C(C)C)C(C)C |  |
|  |  |  |  | CC[C@H](C)[C@H](NC(=O)[C@H](C)NC(=O)[C@@H](NC(=O)[C@@H](NC(=O)[C@H](C)NC(=O)[C@H](CC(C)C)NC(=O)[C@@H](NC(=O)[C@@H](NC(=O)[C@@H](NC(=O)[C@H](CC(C)C)NC(=O)[C@@H](N)CC(C)C)[C@@H](C)CC)[C@@H](C)CC)C(C)C)[C@@H](C)CC)[C@@H](C)CC)C(=O)N[C@@H](CCC(=O)O)C(=O)NCC(=O)N[C@@H](CC(=O)O)C(=O)N[C@@H](CS)C(=O)O | IC50 (HLA-DRB1*0401 (DR4w4)): 3750 nM |
|  |  |  |  | CC[C@H](C)[C@H](NC(=O)[C@@H](NC(=O)[C@@H](N)[C@@H](C)O)[C@@H](C)O)C(=O)N[C@@H](CC(N)=O)C(=O)N[C@@H](Cc1ccc(O)cc1)C(=O)N[C@H](C(=O)N[C@@H](CC(C)C)C(=O)N[C@@H](Cc1c[nH]c2ccccc12)C(=O)N[C@@H](CCCNC(=N)N)C(=O)O)[C@@H](C)O | CTL Tumor ([1]; CTL recognition of tumor targets): 2/5; CTL Wild-type ([1]; CTL recognition of wild-type peptide): 7/7 |
